# Results: PMC8758714, “Effective prediction of biosynthetic pathway genes involved in bioactive polyphyllins in Paris polyphylla” (Communications Biology, 2022)
# Test system: T1, PpUGT73CR1
# T1 construct: gene UGT73CR1; tag removal not mentioned
# Experiment: HPLC quantification of product
# Type: biochemical, Paris polyphylla var. yunnanensis
# Conditions: 5 mM UDP-glucose, 50 mM Tris-HCl pH 8.0, 37 °C, 30 min, 20-400 µM acceptor
# Excerpt: HPLC quantification of product on PpUGT73CR1
Structure (SMILES),Km (product floribundasaponin A),Km (product trillin)
C[C@@H]1CC[C@@]2(OC1)O[C@H]1C[C@H]3[C@@H]4CC=C5C[C@@H](O)CC[C@]5(C)[C@H]4CC[C@]3(C)[C@@]1(O)[C@@H]2C [pennogenin],73.4 ± 8.16 µM,–
C[C@@H]1CC[C@@]2(OC1)O[C@H]1C[C@H]3[C@@H]4CC=C5C[C@@H](O)CC[C@]5(C)[C@H]4CC[C@]3(C)[C@H]1[C@@H]2C [diosgenin],–,53.7 ± 9.37 µM
